Laboratory results published in patent US20250109127A1, “METHODS OF USE OF PHENOXYPROPYLAMINE COMPOUNDS TO TREAT DEPRESSION” (Minerva Neurosciences, Inc., priority 2013, published 2025).
Where “and” joins values, the source holds several entries; their conditions need not be identical. Equal entries are not always repeated.

Tested on: dopamine release in the rat prefrontal cortex
Experiment: Microdialysis: dopamine release in prefrontal cortex after I.P. administration
Assay type: in vivo
Settings: for DOPAMINE in dialysate, MEAN / DOPAMINE in dialysate, individual animals: Citalopram 10 mg/kg I.P.
Procedure: The aim of the study was to evaluate, using microdialysis, the effects of an intraperitoneal (I.P.) administration in rats of three different doses of SON-117 on dopamine and its metabolites, serotonin and its metabolite (5-HIAA), and norepinephrine levels in prefrontal cortex.
Thirty-two adult male Wistar rats were used for the whole study (4 groups of eight animals planned for the study, Table 1).
Surgery was performed on rats weighing about 300 g at the beginning of the experiments. Rats were anaesthetized with Ketamine (50 mg/kg) & Xylazine (15 mg/kg) by intramuscular administration. The animals were placed in a stereotaxic apparatus in the flat-skull position at a constant setting of −3.3 mm between ear bars and the incisor bar. The animals were treated with a local anesthesic (xylocaine 1%, Astra Zeneca) and an analgesic (Temgesic, from Schering Plough, 0.05 mg/kg, s.c.). A rostrocaudal midline incision was made with a lancet to expose the dorsal skull surface. The “stereotaxic zero” was defined by the Bregma in accordance with Paxinos and Watson's atlas (1986). A hole was drilled in the skull with a drill and the meninges were pierced with a sterile needle to implant a CMA12 guide cannula which later received the dialysis probe.
Coordinates used for implanting guide cannula in prefrontal cortex from Bregma were anteroposterior 3.7 mm, mediolateral 0.8 mm, and dorsoventral −2 mm (top of the probe was at −5 mm). The guide cannula was fixed to the skull with two stainless steel screws (1.88 mm outside diameter) anchored. An application of dental cement was added. A plastic collar allowed each animal to be tethered to a Swivel assembly of the CMA 120 awake animal system. Following surgery, rats were kept in individual cages and allowed to recover for a minimum of 3-5 days before the experimentation. The rats were handled and put in plastic bowl for 10 min at least every day to habituate the animals to their new environment for the dialysis. An I.P. administration with saline was also performed every day.
Dialysis probes (CMA12/3 mm, membrane, 20 kD cut-off, Carnegie Medicine, Stockholm, Sweden), were carefully washed before inserting into the guide cannula. The wash was performed with the artificial cerebrospinal fluid (aCSF) medium (NaCl 147 mM, KCl 2.7 mM, CaCl2 1.2 mM, MgCl2 0.85 mM) at room temperature. The dialysis system was then equilibrated at 20° C. at a perfusion rate of 1 μl/min with a Carnegie pump (CMA100). All catheters (FEP tubing, internal volume of 1.2 μl/10 cm, and tubing adaptors) used for microdialysis were treated in the same conditions.
The probes duly prepared were inserted into the guide cannula and the CMA120 Swivel assembly secured to the animal using a plastic collar. Flow through the dialysis probe with aCSF was maintained at a rate of 1 μl/min during the whole experimentation. The first four fractions (corresponding to 2 hours) were discarded to avoid the effects of parenchymal disturbance and to ensure that an approximate steady-state level was reached. Fractions were then collected over a period of 8.5 h during which time the animals remained quiet. The dialysates were automatically collected with an autosampler (microfraction collector CMA 140, Carnegie Medicin) and stored at −80° C. until analysis. […] Perfusion was then maintained for 7 hours with aCSF. The dialysates (30 μl) were collected into 300 μl vials, transferred into dry ice and then kept frozen (−80° C.) until analysis. Frozen samples were shipped to a partner for analysis. At the end of the microdialysis study, a PBS with colored ink was perfused through the probe in order to visualize the dialyzed area.
Catecholamine assay: Concentrations of dopamine, DOPAC, HVA, 5-HIAA, 5-HT, and norepinephrin were determined for each sample by HPLC coupled with electrochemical detection.

In the case of `CN(C)CCCC1(c2ccc(F)cc2)OCc2cc(C#N)ccc21` (centres unmarked) [Citalopram, citalopram, reference compound], the “DOPAMINE in dialysate, MEAN” value (T0-T30 min) is reported as 125.10 % of respective basal, the “DOPAMINE in dialysate, MEAN” value (T30-T1 h) is reported as 100.99 % of respective basal and the “DOPAMINE in dialysate, individual animals” value (T30-T1 h) is reported as 140.37 % of respective basal and 66.54 % of respective basal and 36.31 % of respective basal and 85.24 % of respective basal and 123.31 % of respective basal and 48.94 % of respective basal and 154.56 % of respective basal and 96.98 % of respective basal. The “DOPAMINE in dialysate, MEAN” value (T1 h 30-T2 h) was 186.16 % of respective basal, the “DOPAMINE in dialysate, individual animals” value (T1 h 30-T2 h) was 866.34 % of respective basal and 87.95 % of respective basal and 112.22 % of respective basal and 92.11 % of respective basal and 107.27 % of respective basal and 89.55 % of respective basal and 53.23 % of respective basal and 51.41 % of respective basal and the “DOPAMINE in dialysate, MEAN” value (T1 h-T1 h 30) was 170.05 % of respective basal. The “DOPAMINE in dialysate, individual animals” value (T1 h-T1 h 30) was 573.74 % of respective basal and 97.67 % of respective basal and 64.11 % of respective basal and 123.43 % of respective basal and 30.69 % of respective basal and 110.39 % of respective basal and 169.03 % of respective basal and 176.68 % of respective basal, the “DOPAMINE in dialysate, MEAN” value (T2 h 30-T3 h) was 108.77 % of respective basal and the “DOPAMINE in dialysate, individual animals” value (T2 h 30-T3 h) was 225.14 % of respective basal and 50.88 % of respective basal and 108.16 % of respective basal and 122.69 % of respective basal and 62.34 % of respective basal and 107.84 % of respective basal and 55.41 % of respective basal and 165.66 % of respective basal. The “DOPAMINE in dialysate, MEAN” value (T2 h-T2 h 30) was 255.07 % of respective basal, the “DOPAMINE in dialysate, individual animals” value (T2 h-T2 h 30) was 1031.09 % of respective basal and 91.06 % of respective basal and 160.05 % of respective basal and 100.78 % of respective basal and 166.56 % of respective basal and 132.77 % of respective basal and 334.66 % of respective basal and 26.69 % of respective basal and the “DOPAMINE in dialysate, MEAN” value (T3 h 30-T4 h) was 115.67 % of respective basal. The “DOPAMINE in dialysate, individual animals” value (T3 h 30-T4 h) was 243.96 % of respective basal and 23.86 % of respective basal and 113.64 % of respective basal and 73.20 % of respective basal and 174.87 % of respective basal and 59.22 % of respective basal and 97.27 % of respective basal and 119.98 % of respective basal, the “DOPAMINE in dialysate, MEAN” value (T3 h-T3 h 30) was 151.97 % of respective basal and the “DOPAMINE in dialysate, individual animals” value (T3 h-T3 h 30) was 49.37 % of respective basal and 157.89 % of respective basal and 78.55 % of respective basal and 231.36 % of respective basal and 125.19 % of respective basal and 190.71 % of respective basal and 225.63 % of respective basal. For the same molecule, the “DOPAMINE in dialysate, MEAN” value (T4 h 30-T5 h) was 103.71 % of respective basal, the “DOPAMINE in dialysate, individual animals” value (T4 h 30-T5 h) was 201.72 % of respective basal and 24.62 % of respective basal and 85.39 % of respective basal and 56.71 % of respective basal and 60.52 % of respective basal and 195.94 % of respective basal and 92.15 % of respective basal and the “DOPAMINE in dialysate, MEAN” value (T4 h-T4 h 30) was 197.23 % of respective basal. For the same molecule, the “DOPAMINE in dialysate, individual animals” value (T4 h-T4 h 30) was 337.02 % of respective basal and 36.95 % of respective basal and 127.24 % of respective basal and 110.17 % of respective basal and 45.45 % of respective basal and 94.94 % of respective basal and 255.00 % of respective basal and 192.48 % of respective basal, the “DOPAMINE in dialysate, MEAN” value (T5 h 30-T6 h) was 143.61 % of respective basal and the “DOPAMINE in dialysate, individual animals” value (T5 h 30-T6 h) was 63.71 % of respective basal and 183.35 % of respective basal and 112.87 % of respective basal and 229.69 % of respective basal and 57.13 % of respective basal and 228.31 % of respective basal and 145.07 % of respective basal. For the same molecule, the “DOPAMINE in dialysate, MEAN” value (T5 h-T5 h 30) was 151.58 % of respective basal, the “DOPAMINE in dialysate, individual animals” value (T5 h-T5 h 30) was 209.25 % of respective basal and 54.45 % of respective basal and 141.19 % of respective basal and 97.47 % of respective basal and 150.97 % of respective basal and 246.92 % of respective basal and the “DOPAMINE in dialysate, MEAN” value (T6 h 30-T7 h) was 152.65 % of respective basal. The “DOPAMINE in dialysate, individual animals” value (T6 h 30-T7 h) was 300.59 % of respective basal and 88.72 % of respective basal and 128.46 % of respective basal and 71.16 % of respective basal and 147.69 % of respective basal and 77.59 % of respective basal and 325.54 % of respective basal and 82.54 % of respective basal, the “DOPAMINE in dialysate, MEAN” value (T6 h-T6 h 30) was 90.10 % of respective basal and the “DOPAMINE in dialysate, individual animals” value (T6 h-T6 h 30) was 138.93 % of respective basal and 48.75 % of respective basal and 107.97 % of respective basal and 57.49 % of respective basal and 83.90 % of respective basal and 102.96 % of respective basal and 83.47 % of respective basal and 66.13 % of respective basal. The “DOPAMINE in dialysate, MEAN” value (T-30 min-T0 (pre-dose)) was 107.61 % of respective basal, the “DOPAMINE in dialysate, MEAN” value (T-1 h 30-T-1 h (pre-dose)) was 77.78 % of respective basal and the “DOPAMINE in dialysate, individual animals” value (T-1 h 30-T-1 h (pre-dose)) was 71.31 % of respective basal. The “DOPAMINE in dialysate, MEAN” value (T-1 h-T-30 min (pre-dose)) was 98.79 % of respective basal and the “dopamine levels, increase (not significant)” value (citalopram 10 mg/kg I.P., from T1.5 h and 2.5 h) was 255%.
